# Patent US20260217652A1, “PHENYL-SUBSTITUTED HETEROARYL COMPOUND AND PHARMACEUTICAL COMPOSITION COMPRISING SAME, PREPARATION METHOD THEREFOR AND USE THEREOF” (SHANGHAI MEIYUE BIOTECH DEVELOPMENT CO., LTD., priority 2023, published 2026)
# Biological target: T1, p38 MAPK/MK2 (Homo sapiens, UniProt Q16539)
# T1 construct: purchased Carna (p38α); Abcam (MK2) 04-152; 79910
# Assay: In vitro activity assay of p38 MAPK/MK2 (Z-LYTE kinase assay kit)
# Format: biochemical
# Settings: active p38α, inactive MK2, Ser/Thr 4; 1-hour reaction at 20° C.
# Procedure: The inhibitory effect of the compound on p38 MAPK/MK2 was evaluated using the Z-LYTE kinase assay kit (Thermo, PV3177). The test compound was dissolved in DMSO to obtain a 10 mM stock solution and stored at −20° C. for future use. The initial concentration of the compound was […], with 1% DMSO, 5-fold serial dilution, 8 concentrations, and duplicate wells. […] After a 1-hour reaction at 20° C., Development Reagent A diluted 2048-fold was added to each well, followed by incubation at room temperature for 1 hour. The reaction was terminated by adding 5 μL of stop buffer, and the plate was read using a microplate reader (Ex. 400 nm, Em. 445 nm; Ex. 400 nm, Em. 520 nm). The concentration-effect curve was fitted using GraphPad Prism 8 software, and the compound concentration resulting in 50% inhibition, IC50, was calculated.
# T1 sequence (Q16539 whole entry): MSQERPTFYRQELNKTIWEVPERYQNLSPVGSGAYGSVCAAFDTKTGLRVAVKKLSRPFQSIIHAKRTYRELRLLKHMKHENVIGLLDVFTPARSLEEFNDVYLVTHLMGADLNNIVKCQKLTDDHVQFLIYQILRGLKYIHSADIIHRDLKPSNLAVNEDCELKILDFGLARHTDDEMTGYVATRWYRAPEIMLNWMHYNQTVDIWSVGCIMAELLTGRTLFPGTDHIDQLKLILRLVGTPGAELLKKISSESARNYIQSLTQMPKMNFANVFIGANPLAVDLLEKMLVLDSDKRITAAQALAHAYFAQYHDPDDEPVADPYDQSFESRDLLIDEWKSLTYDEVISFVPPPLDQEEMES
# T1 sequence (P49137 whole entry partner): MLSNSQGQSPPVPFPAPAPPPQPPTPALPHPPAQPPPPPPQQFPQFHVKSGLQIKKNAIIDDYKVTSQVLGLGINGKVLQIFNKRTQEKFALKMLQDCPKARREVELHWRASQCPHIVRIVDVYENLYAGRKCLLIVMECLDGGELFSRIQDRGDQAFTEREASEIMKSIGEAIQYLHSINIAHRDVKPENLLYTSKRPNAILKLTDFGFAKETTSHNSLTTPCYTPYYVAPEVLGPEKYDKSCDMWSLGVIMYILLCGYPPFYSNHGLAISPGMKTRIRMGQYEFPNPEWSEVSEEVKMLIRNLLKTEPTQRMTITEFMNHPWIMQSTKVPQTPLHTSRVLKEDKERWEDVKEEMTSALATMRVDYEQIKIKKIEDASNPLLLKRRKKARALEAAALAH
row,IC50 [nM],SMILES
1,2.25,"COC[C@](C)(O)c1c(F)ccc(-c2cc(-n3c(C)cc(OCc4ncc(F)cc4F)c(Cl)c3=O)c(C)cn2)c1F (atropisomer, axis not shown) [Compound 149]"
2,1.83,"Cc1cnc(-c2ccc(F)c([C@@](C)(O)CO)c2)c(F)c1-n1c(C)cc(OCc2ncc(F)cc2F)c(Cl)c1=O (single isomer, unassigned) [Compound 51-P1]"
3,1.27,"Cc1cnc(-c2ccc(F)c([C@](C)(O)CO)c2F)cc1-n1c(C)cc(OCc2ncc(F)cc2F)c(Cl)c1=O (single isomer, unassigned) [Compound 65-1]"
4,1.86,"Cc1cnc(-c2ccc(F)c([C@@](C)(O)CO)c2F)cc1-n1c(C)cc(OCc2ncc(F)cc2F)c(Cl)c1=O (single isomer, unassigned) [Compound 65-2]"
5,0.4,"Cc1cnc(-c2ccc(F)c([C@](C)(O)CO)c2F)cc1-n1c(C)cc(OCc2ncc(F)cc2F)c(Cl)c1=O (single isomer, unassigned) [Compound 65-P2]"
6,0.14,"Cc1cnc(-c2ccc3c(c2)C(C)(O)C(=O)N3)c(F)c1-n1c(C)cc(OCc2ncc(F)cc2F)c(Cl)c1=O (single isomer, unassigned) [Compound 115-P1]"
7,0.7,"Cc1cnc(-c2ccc3c(c2)C(C)(O)C(=O)N3)c(F)c1-n1c(C)cc(OCc2ncc(F)cc2F)c(Cl)c1=O (single isomer, unassigned) [Compound 115-P2]"
8,2.26,"CNC(=O)C(C)(O)c1c(F)ccc(-c2cc(-n3c(C)cc(OCc4ncc(F)cc4F)c(Cl)c3=O)c(C)cn2)c1F (single isomer, unassigned) [Compound 116-P2]"
9,0.14,"CNC(=O)C(C)(O)c1c(F)ccc(-c2cc(-n3c(C)cc(OCc4ncc(F)cc4F)c(Cl)c3=O)c(C)cn2)c1F (single isomer, unassigned) [Compound 116-P4]"
10,6.81,"CNC(=O)C(C)(O)c1cccc(-c2cc(-n3c(C)cc(OCc4ncc(F)cc4F)c(Cl)c3=O)c(C)cn2)c1F (single isomer, unassigned) [Compound 121-P1]"
11,2.83,"CNC(=O)C(C)(O)c1cccc(-c2cc(-n3c(C)cc(OCc4ncc(F)cc4F)c(Cl)c3=O)c(C)cn2)c1F (single isomer, unassigned) [Compound 121-P2]"
12,0.41,"Cc1cnc(-c2ccc(F)c(C(C)(O)C(N)=O)c2F)cc1-n1c(C)cc(OCc2ncc(F)cc2F)c(Cl)c1=O (single isomer, unassigned) [Compound 125-P1]"
13,0.28,"Cc1cnc(-c2ccc(F)c(C(C)(O)C(N)=O)c2F)cc1-n1c(C)cc(OCc2ncc(F)cc2F)c(Cl)c1=O (single isomer, unassigned) [Compound 125-P3]"
14,1.68,"Cc1cnc(-c2cccc(C(C)(O)C(N)=O)c2F)cc1-n1c(C)cc(OCc2ncc(F)cc2F)c(Cl)c1=O (single isomer, unassigned) [Compound 126-P1]"
15,0.28,"Cc1cnc(-c2cccc(C(C)(O)C(N)=O)c2F)cc1-n1c(C)cc(OCc2ncc(F)cc2F)c(Cl)c1=O (single isomer, unassigned) [Compound 126-P3]"
16,90.3,Cc1cnc(-c2cccc(C(=O)NO)c2)cc1-n1c(C)cc(OCc2ncc(F)cc2F)c(Cl)c1=O [Compound 5]
17,87.5,Cc1cnc(-c2cccc(C(=O)NOCCO)c2)cc1-n1c(C)cc(OCc2ncc(F)cc2F)c(Cl)c1=O [Compound 7]
18,60.5,Cc1cnc(-c2cccc(C(=O)N3CC(C)(O)C3)c2)cc1-n1c(C)cc(OCc2ncc(F)cc2F)c(Cl)c1=O [Compound 10]
19,87.9,CNC(=O)c1cc(-c2cc(-n3c(C)cc(OCc4ncc(F)cc4F)c(Cl)c3=O)c(C)cn2)ccc1F [Compound 17]
20,0.51,Cc1cnc(-c2cccc(C(N)=O)c2F)cc1-n1c(C)cc(OCc2ncc(F)cc2F)c(Cl)c1=O [Compound 21-P2]
21,0.71,Cc1cnc(-c2cccc([C@](C)(O)CO)c2F)cc1-n1c(C)cc(OCc2ncc(F)cc2F)c(Cl)c1=O [Compound 35-P2]
22,2.39,Cc1cnc(-c2cccc(C(C)(O)CO)c2F)cc1-n1c(C)cc(OCc2ncc(F)cc2F)c(Cl)c1=O (stereo not shown) [Compound 35]

row,IC50 [nM],SMILES
1,4.66,Cc1cnc(-c2cccc([C@](C)(O)CO)c2Cl)cc1-n1c(C)cc(OCc2ncc(F)cc2F)c(Cl)c1=O [Compound 37-1]
2,0.12,Cc1ccc(-c2ncc(C)c(-n3c(C)cc(OCc4ncc(F)cc4F)c(Cl)c3=O)c2F)cc1[C@@](C)(O)CO [Compound 52-P1]
3,1.2,Cc1cnc(-c2ccc(Cl)c([C@](C)(O)CO)c2)c(F)c1-n1c(C)cc(OCc2ncc(F)cc2F)c(Cl)c1=O [Compound 53-1]
4,3.02,Cc1cnc(-c2ccc(Cl)c([C@@](C)(O)CO)c2)c(F)c1-n1c(C)cc(OCc2ncc(F)cc2F)c(Cl)c1=O [Compound 53-2]
5,0.35,Cc1cnc(-c2cccc([C@](C)(O)CO)c2Cl)c(F)c1-n1c(C)cc(OCc2ncc(F)cc2F)c(Cl)c1=O [Compound 62-P1]
6,0.058,Cc1cnc(-c2cccc([C@@](C)(O)CO)c2Cl)c(F)c1-n1c(C)cc(OCc2ncc(F)cc2F)c(Cl)c1=O [Compound 62-P3]
7,8.54,Cc1cnc(-c2cccc([C@@](C)(O)CO)c2)cc1-n1c(C)cc(OCc2ncc(F)cc2F)c(Cl)c1=O [Compound 87-P1]
8,0.93,Cc1cnc(-c2cccc(C(C)(C)O)c2F)cc1-n1c(C)cc(OCc2ncc(F)cc2F)c(Cl)c1=O [Compound 101]
9,0.15,Cc1cnc(-c2cccc(C(C)(C)O)c2O)cc1-n1c(C)cc(OCc2ncc(F)cc2F)c(Cl)c1=O [Compound 102]
10,7.73,Cc1cnc(-c2cc([C@@](C)(O)CO)ccc2F)c(F)c1-n1c(C)cc(OCc2ncc(F)cc2F)c(Cl)c1=O [Compound 106-P1]
11,4.99,Cc1cnc(-c2cc([C@@](C)(O)CO)ccc2Cl)c(F)c1-n1c(C)cc(OCc2ncc(F)cc2F)c(Cl)c1=O [Compound 107-P1]
12,1.94,Cc1cnc(-c2cc(F)cc([C@](C)(O)CO)c2F)cc1-n1c(C)cc(OCc2ncc(F)cc2F)c(Cl)c1=O [Compound 110-1]
13,0.7,Cc1cnc(-c2cc(F)cc([C@@](C)(O)CO)c2F)cc1-n1c(C)cc(OCc2ncc(F)cc2F)c(Cl)c1=O [Compound 110-P1]
14,19.9,Cc1cnc(-c2ccc3c(c2)C(C)(C)NC3=O)c(F)c1-n1c(C)cc(OCc2ncc(F)cc2F)c(Cl)c1=O [Compound 129]
15,39.9,Cc1cnc(-c2ccc3c(c2F)C(C)(C)NC3=O)cc1-n1c(C)cc(OCc2ncc(F)cc2F)c(Cl)c1=O [Compound 134]
16,13,Cc1cnc(-c2cccc(C3(O)CC3)c2F)cc1-n1c(C)cc(OCc2ncc(F)cc2F)c(Cl)c1=O [Compound 135]
17,26.2,Cc1cnc(-c2cccc(C3(O)CC3)c2)c(F)c1-n1c(C)cc(OCc2ncc(F)cc2F)c(Cl)c1=O [Compound 136]
18,1.21,Cc1cnc(-c2ccc(F)c(C(C)(O)C(=O)O)c2)c(F)c1-n1c(C)cc(OCc2ncc(F)cc2F)c(Cl)c1=O (stereo not shown) [Compound 138-1]
19,53,CNCC(C)(O)c1cc(-c2ncc(C)c(-n3c(C)cc(OCc4ncc(F)cc4F)c(Cl)c3=O)c2F)ccc1F (stereo not shown) [Compound 139]
20,3.37,Cc1cc(OCc2ncc(F)cc2F)c(Cl)c(=O)n1-c1ccnc(-c2ccc(F)c(C(C)(C)O)c2F)c1 [Compound 142]
21,18.1,Cc1cc(OCc2ncc(F)cc2F)c(Cl)c(=O)n1-c1ccnc(-c2cccc([C@@](C)(O)CO)c2F)c1 [Compound 143]
